According to patent publication US12109266B2, “Modulating gabarap to modulate immunogenic cell death” (Dana-Farber Cancer Institute, Inc., priority 2020, dated 2024):
“Also recorded” adds a separate entry of the source.

Tests used:
[1] = test system: HR-SMM; conditions: cited from earlier work
[2] = test system: 5TGM1 MM cells; test: Cell Counting Kit-8 (CCK-8) proliferation assay; type: cell-based, murine; conditions: ADU-S100 0-5 uM, 72 hr
Experimental: Cell viability was evaluated by Cell Counting Kit-8 (CCK-8) assay (Dojindo Molecular Technologies).

[3] = test system: cGAS/STING pathway; test: Western blot of cGAS/STING pathway; type: cell-based, human; conditions: AMO1; ADU-S100 10 uM with BTZ 5 nM
Experimental: Cell lysis was performed in RIPA buffer (Boston Bio Products) supplemented with Halt protease and phosphatase inhibitor cocktail (ThermoFisher Scientific). SDS-PAGE was performed on NuPage Bis-Tris gels (ThermoFisher Scientific) using MOPS or MES running buffer. Gels were dry transferred onto 0.45 μm nitrocellulose membranes using the iBlot® Dry Blotting System (ThermoFisher Scientific). The following Abs were purchased from Cell Signaling Technology: EIF2A (#5324), p-EIF2A (#3398), ATF4 (#11815), CHOP (2895), CALR (#12238), cGAS (#15102), TBK1 (#3504), pTBK1 (#5483), pIRF3 (#29047), STING (#13647). GAPDH (#2118) and B-ACTIN (#4970) were used as loading controls.

[4] = test system: type-I IFN response in AMO1 and NCI-H929 MM cells; test: Type-I IFN response in MM cells (RNA-seq, qRT-PCR, ELISA); type: cell-based, human; conditions: H929; STING agonist 10 uM with BTZ 5 nM
Experimental: Total RNA from multiple myeloma cells was prepared with TRIzol™ (ThermoFisher Scientific) and RNA Clean and Concentrator™-5 kit (Zymo Research) following the product instructions. RNA integrity and quantity was assessed by NanoDrop Spectrophotometer (ThermoFisher Scientific). For analysis of mRNA expression, oligo-dT-primed cDNA was obtained using the High Capacity cDNA Reverse Transcription Kit (ThermoFisher Scientific), and used as template to quantify: human and murine IFNA1 (Hs03044218_g1, Mm03030145_gH), human and murine IFNB1 (Hs01077958_s1, Mm00439552_s1), human and murine CXCL9 (Hs00171065_ml, Mm00434946_ml), and human and murine GAPDH (Hs02786624_g1, Mm99999915_g1). Analysis was determined by RT-PCR using TaqMan®Fast Universal PCR Master Mix on a 7500 Fast Real-Time PCR System (ThermoFisher Scientific). Comparative RT-PCR was performed in triplicate. Relative expression was calculated using the comparative […] (Ct) method.
AMO1^WT and STING^KO cells were either untreated or treated with BTZ for 24 h. Supernatant was collected, and secretion of CXCL9 chemokines was analyzed by MIG (CXCL9) Human Instant ELISA™ Kit (#BMS285INST, ThermoFisher Scientific).
AMO1 WT and STING^KO were cultured for 16 h in the presence of absence of BTZ (5 nM). RNA was extracted as previously described and submitted to NovaSeq RNAseq analysis followed by VIPER NGS Analysis pipeline (Cornwell et al. (2018) BMC Bioinformatics; 19(1):135). Lists of DEGs were applied to the GSEA software. RNAseq data have been submitted to Gene Expression Omnibus (accession number: GSE171837).

[5] = test system: 5TGM1 tumors; test: IHC CD3 staining of tumors; type: in vivo, mouse; conditions: tumors retrieved after one administration of the drugs
Experimental: (§1) NOD/SCID and C57BL/KaLwRijHsd mice were subcutaneously (sc) injected with 1×10^6 5TGM1 either WT or Calr^KO cells in PBS. When tumor became measurable, mice were randomized to receive either PBS or BTZ administered intra peritoneally (i.p.) 0.5 mg/kg twice/week for 2 weeks. Tumor sizes were measured as previously described (46), and mice were sacrificed when tumors reached 2 cm in diameter or ulceration or major compromise in quality of life. A parallel experiment was performed to allow for tumor harvesting after two injections ip of BTZ for RNA-seq analysis, as detailed below. For BTZ and STING agonist combination studies, C57BL/KaLwRijHsd (n=5/group) and SCID/NOD (n=6/group) mice bearing 5TGM1 WT and C57BL/KaLwRijHsd mice (n=5/group) bearing 5TGM1 Sting^KO tumors were randomized to receive: PBS, BTZ (0.375 mg/kg twice a week for 2 weeks, i.p.), ADU-S100 (100 μg) administered in the peritumoral area (day 1 and 2), or a combination. Tumor sizes were measured as described above. A parallel experiment in C57BL/KaLwRijHsd mice was performed to allow for tumor harvesting after one administration of either BTZ or ADU-S100. Tumors were fixed in 10% formalin for 24 h, and then maintained in 70% ethanol prior to paraffin embedding and processing for IHC to detect CD3 (#nb600 Ab, Novus Bio).

[6] = test system: 5TGM1 tumors; test: In vivo tumor growth analysis; design: species or system mouse
Experimental: (§2) 6-week old female immunodeficient NOD.CB17-Prkdcscid/NCrCrl (NOD/SCID) mice (Charles River) and immunocompetent C57BL/KaLwRijHsd (Envigo) mice were housed in an animal facility at the Dana-Farber Cancer Institute (DFCI). All experiments were performed after approval by the Animal Ethics Committee of the DFCI and performed using institutional guidelines.
To assess the effect of BTZ in the absence of an immune system, NOD/SCID mice were subcutaneously injected with 1×10^6 5TGM1 WT cells in a 1:1 ratio with Matrigel® (Corning); to assess BTZ in an immunocompetent host, C57BL/KaLwRijHsd mice were injected with 1×10^6 5TGM1 either WT or calrKO in the same ratio with Matrigel®. When tumor became measurable, mice (5/group) were randomized to receive either PBS or BTZ administered intra peritoneally (i.p.) 0.5 mg/kg twice/week for 2 weeks. Tumor sizes were measured and mice were sacrificed when tumors reached 2 cm in diameter or ulceration or major compromise in quality of life. A parallel experiment was performed to allow for tumor harvesting after two injections i.p. of BTZ for RNA-seq analysis, as detailed below.
as §2, with “(NOD/SCID)” for “(NOD/SCID) mice”, “in the” for “in an”, “at DFCI.” for “at the Dana-Farber Cancer Institute (DFCI).”
as §1

[7] = test system: MM cell lines; conditions: different MM cell lines; cited from earlier work
[8] = test system: AMO1, H929 and KMS11 MM cells; test: Phagocytosis assay of MM cells by monocyte-derived DCs; type: cell-based, human; conditions: AMO1 GABARAP^KO after BTZ, rCALR 3 ug/10^6 cells
Experimental: Mo-DCs were generated from CD14+ peripheral blood monocytes were positively selected using magnetic beads (Miltenyi Biotec) and cultured for 6 days in mo-DC differentiation medium containing GM-CSF and IL-4 (130-094-812; Miltenyi Biotec) to generate Mo-DCs. AMO1, KMS11 and H929 cells lines, as well as patient MM cells, were stained with CellTrace™ Far Red (ThermoFisher Scientific), cultured with or without BTZ (for 16 h), and then incubated in 48-well plates for 4 h at 1:1 ratio with CellTrace™ CFSE stained Mo-DCs. Cells were then collected, and phagocytosis analysis was performed by flow cytometry and confocal microscopy. Analagous phagocytosis experiments was performed using 5TGM1 murine MM and immature murine DC line JAWSII.
Collected cells were analyzed using the BD LRSFortessa™ X-20 flow cytometer. Mo-DCs that engulfed MM cells were CFSE and FAR-RED double positive. Fold increase in percentage of double positive DCs after co-culture with BTZ treated vs untreated MM cells was compared.
Mo-DCs were generated from CD14+ peripheral blood monocytes from healthy donors, positively selected using magnetic beads (Miltenyi Biotec), cultured for 6 days in mo-DC differentiation medium containing GM-CSF and IL-4 (130-094-812; Miltenyi Biotec). AMO1 and NCI-H929 cells lines, as well as patient MM cells, were stained with CellTrace™ Far Red (ThermoFisher Scientific), cultured with or without BTZ for 16 h, and then incubated in 48-well plates for 4 h at 1:1 ratio with CellTrace™ CFSE stained Mo-DCs. Cells were then collected, and phagocytosis analysis was performed by flow cytometry and confocal microscopy. Analagous phagocytosis experiments were performed using 5TGM1 murine multiple myeloma and JAWSII cell line that was used as source of immature murine DCs.
Flow cytometry-based assay: Collected cells were analyzed using the BD LRSFortessa X-20 flow cytometer. Mo-DCs that engulfed MM cells were CFSE and FAR-RED double positive. Fold increase in percentage of double positive DCs after co-culture with BTZ treated vs untreated MM cells was compared.

Molecule: Nc1cccc2c1CN(C1CCC(=O)NC1=O)C2=O (centres unmarked) [lenalidomide]
- progression of HR-SMM ([1]; lenalidomide alone): delay progressions of HR-SMM
- treatment discontinuation and secondary cancers ([1]; lenalidomide cohort): high rate of treatment discontinuation and secondary cancers

Molecule: Nc1ncnc2c1ncn2[C@@H]1O[C@@H]2COP(=O)([S-])O[C@@H]3[C@H](O)[C@@H](COP([O-])(=S)O[C@H]2[C@H]1O)O[C@H]3n1cnc2c(N)ncnc21.[Na+].[Na+] (some centres unmarked) [ADU-S100]
- direct killing of MM cells (live cells vs untreated) [2]: sensitive to a direct killing
- phosphorylated TBK1 [3]: higher levels of phosphorylated TBK1 kinase
- transcription of IFNA1 and IFNB1 [4]: increased transcription of IFNA1 and IFNB1
- CD3+ T cell infiltration within tumors (IHC) [5]: increased CD3+ T cell infiltration within tumors
- anti-tumor activity ([6]; 5TGM1 Sting^KO tumors in immunocompetent mice): still retained a partial anti-multiple myeloma activity
- anti-tumor effects ([6]; 5TGM1 WT in immunodeficient NOD/SCID mice, BTZ 0.375 mg/kg, ADU-S100 100 ug day 1 and 2): abrogated the anti-tumor effects

Molecule: CC(C)C[C@H](NC(=O)[C@H](CCc1ccccc1)NC(=O)CN1CCOCC1)C(=O)N[C@@H](Cc1ccccc1)C(=O)N[C@@H](CC(C)C)C(=O)[C@@]1(C)CO1 [carfilzomib]
- CRT exposure [7]: shown to expose CRT in different MM cell lines

B1: rCRT: recombinant calreticulin purchased from Sigma (SRP8001) (protein)
chain: EPAVYFKEQFLDGDGWTSRWIESKHKSDFGKFVLSSGKFYGDEEKDKGLQTSQDARFYALSASFEPFSNKGQTLVVQFTVKHEQNIDCGGGYVKLFPNSLDQTDMHGDSEYNIMFGPDICGPGTKKVHVIFNYKGKNVLINKDIRCKDDEFTHLYTLIVRPDNTYEVKIDNSQVESGSLEDDWDFLPPKKIKDPDASKPEDWDERAKIDDPTDSKPEDWDKPEHIPDPDAKKPEDWDEEMDGEWEPPVIQNPEYKGEWKPRQIDNPDYKGTWIHPEIDNPEYSPDPSIYAYDNFGVLGLDLWQVKSGTIFDNFLITNDEAYAEEFGNETWGVTKAAEKQMKDKQDEEQRLKEEEEDKKRKEEEEAEDKEDDEDKDEDEEDEEDKEEDEEEDVPGQAKDEL
- phagocytosis of MM cells by DCs with recombinant calreticulin add-back [8]: confirmed the on-target effect GABARAP^KO; also recorded: restored phagocytosis of MM cells after BTZ
- phagocytosis of MM cells by DCs with recombinant calreticulin add-back ([8]; listed as recombinant CRT): increases the immune response against the cancer cells
